Each structure is given as a SMILES string.

Assay [1] addresses T1, Sco GlgEI-V279S (Streptomyces coelicolor, UniProt Q9L1K2, V279S). The note with it: ratio of Ki values.
Assay [2] has as its target T1, Sco GlgEI-V279S. The note with it: earlier work; cited from earlier work.

T1 sequence (Q9L1K2 whole entry V279S): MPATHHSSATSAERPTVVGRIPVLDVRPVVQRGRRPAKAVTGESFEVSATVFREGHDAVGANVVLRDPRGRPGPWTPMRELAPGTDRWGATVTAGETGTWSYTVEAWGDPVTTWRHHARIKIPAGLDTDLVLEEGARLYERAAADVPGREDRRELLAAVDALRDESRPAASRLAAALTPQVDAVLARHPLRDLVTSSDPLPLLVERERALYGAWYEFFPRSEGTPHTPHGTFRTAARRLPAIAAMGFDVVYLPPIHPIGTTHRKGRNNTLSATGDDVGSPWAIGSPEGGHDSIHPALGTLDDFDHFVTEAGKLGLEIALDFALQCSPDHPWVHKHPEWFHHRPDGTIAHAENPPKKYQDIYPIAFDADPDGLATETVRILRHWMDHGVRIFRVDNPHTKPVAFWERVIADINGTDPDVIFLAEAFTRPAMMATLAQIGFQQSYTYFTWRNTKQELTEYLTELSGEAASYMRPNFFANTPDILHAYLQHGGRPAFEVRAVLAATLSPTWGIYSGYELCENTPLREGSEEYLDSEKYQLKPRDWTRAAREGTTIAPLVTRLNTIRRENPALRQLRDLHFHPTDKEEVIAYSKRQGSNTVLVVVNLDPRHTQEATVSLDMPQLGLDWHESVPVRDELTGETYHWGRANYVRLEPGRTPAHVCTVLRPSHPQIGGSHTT

`O=P(O)(O)CN1C(CO)C(O)C(O[C@H]2O[C@H](CO)[C@@H](O)[C@H](O)[C@H]2O)C1CO` (stereo partly drawn) [Compound 5, ((3-Hydroxy-2,5-bis(hydroxymethyl)-(3-O-α-D-glucopyranosyl)pyrrolidin-1-yl)methyl)phosphonic acid]: the “fold more potent than previously reported inhibitor 4” value in assay [1] (5 versus 4) turned out to be 2 fold. The “fold more potent than two carbon phosphonate 6” value in assay [1] (5 versus 6) worked out at 2 fold.

With `OC[C@H]1N[C@H](CO)[C@@H](O[C@H]2O[C@H](CO)[C@@H](O)[C@H](O)[C@H]2O)[C@@H]1O` [Compound 4, 2,5-dideoxy-3-O-α-D-glucopyranosyl-2,5-imino-D-mannitol], the “inhibitory activity against Sco GlgEI-V279S (in words)” value in assay [2] was “moderate inhibitory activity”.

The values above are taken from paper PMC6169318 (Organic & biomolecular chemistry, 2017).
